Data reported in patent publication US7608587B2, “Exendin 4 polypeptide fragment” (Changzhou Pharmaceutical Factory, priority 2005, dated 2009).

Legend:
[1] = tested on: Goto Kokizaki II rats; experiment: insulin secretion stimulation in Goto Kokizaki II rats (ELISA); assay type: in vivo, rat; details: 5 μg subcutaneous, 0-45 minutes
Method: Six-month-old (470 g body weight) Goto Kokizaki II rats were taken for the operative procedure. The test animals were administrated by subcutaneous injection of Exendin 4 polypeptides in a dose of 5 μg, while the animals of control group only achieved physiological saline solution. 20 μl of blood samples were obtained from fasted animals at 0, 3, 5, 10, 15, 30 and 45 minutes time points respectively after administration of the test substance.

[2] = tested on: diabetic animal models; experiment: hypoglycemic activity across the diabetic animal models of examples 3-7 (overall statement); assay type: in vivo; details: assays of examples 3, 4, 5, 6, 7
Source text: The effect of hypoglycemic levels of the polypeptide in the present invention is validated with the routine methods in the art, such as the experiments of cell biology, the animal experiments, etc. In embodiments of the present invention, in order to overcome the limitations of the experiments in vitro, preferably employed diabetic animal models to assay the effect of hypoglycemic levels, such as db/db II diabetic mice, Goto-Kokizaki (GK) II type rat, diabetic KK mice, alloxan induced diabetic mice. These animal experiments indicate the Exendin 4 polypeptide fragment represented by formula (I) in the present invention, has a continuous effect of sustaining hypoglycemic activity in vivo and can be used for the diabetes treatment. KK type II diabetic mice (purchased from Shanghai Laboratory Animal Center, Chinese Academy of Sciences, China) with 50 g body weight are subjected to fasting for 2 hours, and are divided into four groups. Two groups are injected with 2 μg Exendin 4, the other two groups are injected with 2 μg Exendin 4 polypeptide fragment presented in the invention. Twenty microliter blood samples are obtained from fasted animals at 0, 0.5, 1, 2, 3, 4, 5 and 6 h time points respectively after administration of the test substance. The sustained hypoglycemic activity is analyzed by using the blood sugar assay kit (purchased from Shanghai Institute of Biological Products, China). The corresponding results of the Exendin 4 polypeptide fragments having the sequences of SEQ ID NO. 1, SEQ ID NO. 2, SEQ ID NO. 3, SEQ ID NO. 4, SEQ ID NO. 5, SEQ ID NO. 6, SEQ ID NO. 7, SEQ ID NO. 8, SEQ ID NO. 9, SEQ ID NO. 10, SEQ ID NO. 11 and SEQ ID NO. 12 are shown in FIG. 7, FIG. 2, FIG. 12, FIG. 17, FIG. 22, FIG. 27, FIG. 32, FIG. 37, FIG. 42, FIG. 47, FIG. 52 and FIG. 57 respectively. The db/db II diabetic mice (purchased from Shanghai Laboratory Animal Center, Chinese Academy of Sciences and Yangzhou University, China) with 50 g body weight are subjected to fasting for 2 hours, the test animals were administrated by subcutaneous injection of Exendin 4 polypeptide fragment in a dose of 2 μg. 20 μl blood samples were obtained from fasted animals at 0, 0.5, 1 and 2 hours time points respectively after administration of the test substance. The sustained hypoglycemic activity is analyzed by using the blood sugar assay kit (purchased from Shanghai Institute of Biological Products, China). The corresponding results of the Exendin 4 polypeptide fragments having the sequences of SEQ ID NO. 1, SEQ ID NO. 2, SEQ ID NO. 3, SEQ ID NO. 4, SEQ ID NO. 5, SEQ ID NO. 6, SEQ ID NO. 7, SEQ ID NO. 8, SEQ ID NO. 9, SEQ ID NO. 10, SEQ ID NO. 11 and SEQ ID NO. 12 are shown in FIG. 8, FIG. 3, FIG. 13, FIG. 18, FIG. 23, FIG. 28, FIG. 33, FIG. 38, FIG. 43, FIG. 48, FIG. 53, FIG. 58 respectively. Five-month-old (body weight 470 g) Goto Kokizaki diabetic rat (purchased from Shanghai Laboratory Animal Center, Chinese Academy of Sciences, China) are taken for the operative procedure. After subjecting to fasting for 2 hours, the test animals were administrated by intraperitoneal injection of 20% glucose in a dose of 1 ml and by subcutaneous injection of Exendin 4 polypeptide fragment in a dose of 5 μg. The control group received only glucose. Twenty microliter blood samples were obtained from fasted animals at 0, 0.5, 1 and 2 hours time points respectively after administration of the test substance. The sustained hypoglycemic activity is determined by using the blood sugar assay kit (purchased from Shanghai Institute of Biological Products, China). The curve 1 indicates the control group. The curve 2 indicates the administration group. Eight-week-old (20 g body weight) mice are taken for the operative procedure. Experimental diabetes in mice was induced by (16 mg/ml) 0.1 ml alloxan by tail vein injection. Animals are divided into five groups. 48 hours later, 2 μg Exendin 4 polypeptide fragment was injected. […]

Row | Substance | insulin secretion of the test group [1] | hypoglycemic activity (in words) [2]
1 | SEQ ID NO. 62: solid phase Exendin 4 polypeptide variant of example 8; sequence not printed in the text (HGEGTYTSNLSKQMEEEAVKLFIEWLKNGGP; Exendin 4 polypeptide fragment) | recovered | significant hypoglycemic activity
2 | SEQ ID NO. 64: solid phase Exendin 4 polypeptide variant of example 8; sequence not printed in the text (HGEGTYTSNLSKQMEEEAVKLFIEWLKNGP; Exendin 4 polypeptide fragment) | recovered | significant hypoglycemic activity
3 | SEQ ID NO. 65: solid phase Exendin 4 polypeptide variant of example 8; sequence not printed in the text (HGEGTFTSNLSKQIEEEAVKLFIEWLKNGGP; Exendin 4 polypeptide fragment) | recovered | significant hypoglycemic activity
4 | SEQ ID NO. 66: solid phase Exendin 4 polypeptide variant of example 8; sequence not printed in the text (HGEGTYTSNLSKQIEEEAVKLFIEWLKNGGP; Exendin 4 polypeptide fragment) | recovered | significant hypoglycemic activity
5 | SEQ ID NO. 67: solid phase Exendin 4 polypeptide variant of example 8; sequence not printed in the text (HGEGTFTSNLSKQIEEEAVKLFIEWLKNGP; Exendin 4 polypeptide fragment) | recovered | significant hypoglycemic activity
6 | SEQ ID NO. 68: solid phase Exendin 4 polypeptide variant of example 8; sequence not printed in the text (HGEGTYTSNLSKQIEEEAVKLFIEWLKNGP; Exendin 4 polypeptide fragment) | recovered | significant hypoglycemic activity
7 | SEQ ID NO. 69: solid phase Exendin 4 polypeptide variant of example 8; sequence not printed in the text (HGEGTFTSNLSKQLEEEAVKLFIEWLKNGGP; Exendin 4 polypeptide fragment) | recovered | significant hypoglycemic activity
8 | SEQ ID NO. 70: solid phase Exendin 4 polypeptide variant of example 8; sequence not printed in the text (HGEGTYTSNLSKQLEEEAVKLFIEWLKNGGP; Exendin 4 polypeptide fragment) | recovered | significant hypoglycemic activity
9 | SEQ ID NO. 71: solid phase Exendin 4 polypeptide variant of example 8; sequence not printed in the text (HGEGTFTSNLSKQLEEEAVKLFIEWLKNGP; Exendin 4 polypeptide fragment) | recovered | significant hypoglycemic activity
10 | SEQ ID NO. 72: solid phase Exendin 4 polypeptide variant of example 8; sequence not printed in the text (HGEGTYTSNLSKQLEEEAVKLFIEWLKNGP; Exendin 4 polypeptide fragment) | recovered | significant hypoglycemic activity
